Here are results for one compound from ChEMBL document CHEMBL1201862, “PubChem BioAssay data set” (2004).

Experiment [1] in a line: mitochondrial function rescue without frataxin homolog – Friedreich's ataxia, plus single-dose screen, dose response (AID 1465).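 Further: yeast depleted of Yfh1p frataxin homolog grown on glycerol needing respiration; WST-1 tetrazolium dye reduction as measure of cellular dehydrogenase metabolic activity.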 In kind it is functional.
The nature of experiment [2]: Counterscreen for IDE inhibitors: Luminescence-based cell-based high throughput dose response assay to identify compounds that are cytotoxic to HEK cells. [Related pubchem assays: 434962 (Primary screen (IDE inhibitors in singlicate)), 449730 (Counterscreen (Cytotoxicity in triplicate)), 435028 (Confirmation (IDE inhibitors in triplicate)) …. In kind it is functional. The following applies: HEK293.

Experiment [3] concerns the target T1, Nuclear receptor subfamily 0 group B member 1 (Homo sapiens, UniProt P51843).
T1 sequence (P51843 whole entry): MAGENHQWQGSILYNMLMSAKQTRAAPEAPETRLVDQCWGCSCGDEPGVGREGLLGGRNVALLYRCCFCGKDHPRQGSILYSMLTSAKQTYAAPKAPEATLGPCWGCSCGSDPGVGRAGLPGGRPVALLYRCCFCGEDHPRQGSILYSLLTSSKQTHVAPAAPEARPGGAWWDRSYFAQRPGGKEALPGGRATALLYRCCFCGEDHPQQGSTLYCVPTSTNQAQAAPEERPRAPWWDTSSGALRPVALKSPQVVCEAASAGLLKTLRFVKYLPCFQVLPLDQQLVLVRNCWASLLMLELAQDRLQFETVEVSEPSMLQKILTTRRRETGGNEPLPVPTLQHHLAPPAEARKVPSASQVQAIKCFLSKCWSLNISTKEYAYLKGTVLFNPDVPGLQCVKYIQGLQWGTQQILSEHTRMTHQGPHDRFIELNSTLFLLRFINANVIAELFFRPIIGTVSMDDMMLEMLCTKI
The experiment can be described thus: Luminescence-based cell-based high throughput dose response assay for inhibitors of the orphan nuclear receptor subfamily 0, group B, member 1 (DAX1; NR0B1). [Related pubchem assays (depositor defined):AID504766, AID504790]. It is filed as functional.

Experiment [4] addresses T2, RNA-binding protein pos-1 (Caenorhabditis elegans, UniProt G5EF15).
T2 sequence (G5EF15 whole entry): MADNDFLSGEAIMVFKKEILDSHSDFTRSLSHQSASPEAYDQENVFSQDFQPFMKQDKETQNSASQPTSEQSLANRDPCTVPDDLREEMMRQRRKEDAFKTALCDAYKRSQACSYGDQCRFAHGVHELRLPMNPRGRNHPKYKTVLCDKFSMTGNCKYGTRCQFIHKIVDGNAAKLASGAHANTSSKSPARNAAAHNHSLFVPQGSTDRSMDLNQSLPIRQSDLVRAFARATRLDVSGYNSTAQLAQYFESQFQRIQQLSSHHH
The experiment can be described thus: disruptors of C. elegans POS-1 RNA interaction – biochemical, fluorescence polarization, dose response (AID 1964). (Fluorescence polarisation rises when a labelled molecule tumbles more slowly, as on binding a larger partner.)

The next experiment addresses T3, Insulin-degrading enzyme (Homo sapiens, UniProt P14735).
T3 sequence (P14735 whole entry): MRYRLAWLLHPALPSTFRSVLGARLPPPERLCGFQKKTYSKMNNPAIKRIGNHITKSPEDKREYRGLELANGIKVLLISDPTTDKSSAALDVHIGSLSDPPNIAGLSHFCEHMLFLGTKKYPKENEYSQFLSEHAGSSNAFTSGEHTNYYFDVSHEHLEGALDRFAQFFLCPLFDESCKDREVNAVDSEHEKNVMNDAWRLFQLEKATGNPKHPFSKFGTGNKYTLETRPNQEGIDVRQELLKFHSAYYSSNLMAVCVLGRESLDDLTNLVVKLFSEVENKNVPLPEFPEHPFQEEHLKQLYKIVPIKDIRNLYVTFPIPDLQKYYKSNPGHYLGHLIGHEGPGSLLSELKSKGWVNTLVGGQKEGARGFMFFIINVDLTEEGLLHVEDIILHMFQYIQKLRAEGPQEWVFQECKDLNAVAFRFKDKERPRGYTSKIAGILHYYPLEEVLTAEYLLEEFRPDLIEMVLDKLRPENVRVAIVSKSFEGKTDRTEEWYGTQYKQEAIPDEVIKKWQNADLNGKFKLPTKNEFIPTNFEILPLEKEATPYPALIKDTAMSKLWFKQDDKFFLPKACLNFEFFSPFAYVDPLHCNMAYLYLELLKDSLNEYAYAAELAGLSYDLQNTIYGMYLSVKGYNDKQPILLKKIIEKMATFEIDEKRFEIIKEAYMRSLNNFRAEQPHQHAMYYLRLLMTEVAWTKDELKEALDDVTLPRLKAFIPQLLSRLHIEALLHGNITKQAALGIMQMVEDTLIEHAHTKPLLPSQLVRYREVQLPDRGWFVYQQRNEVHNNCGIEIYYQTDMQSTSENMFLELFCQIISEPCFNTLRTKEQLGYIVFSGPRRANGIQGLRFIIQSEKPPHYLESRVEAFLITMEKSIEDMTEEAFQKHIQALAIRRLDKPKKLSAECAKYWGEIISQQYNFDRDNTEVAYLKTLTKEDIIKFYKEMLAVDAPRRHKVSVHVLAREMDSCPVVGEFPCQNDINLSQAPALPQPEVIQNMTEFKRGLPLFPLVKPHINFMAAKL
The experiment can be described thus: Dose Response: Fluorescence polarization-based cell-based high throughput dose response assay for inhibitors of insulin-degrading enzyme (IDE). [Related pubchem assays: 434962 (Primary screen (IDE inhibitors in singlicate)), 449730 (Counterscreen (Cytotoxicity in triplicate)), 435028 (Confirmation (IDE inhibitors in triplicate)), 434984 (Summary …. In kind it is functional.

Another experiment concerns HEK293. In words: cells. The following applies: Homo sapiens. In kind it is functional, cell-based.

The source made the active and inactive calls. A value given as a limit tells only on which side of the number the result lay.

With `CCN(CC)c1ccc(/C=C2\C(=O)NC(=S)N(C)C2=O)o1`, the figures for the EC50 in experiment [1] and in experiment [4] were > 100 µM (active) and > 300 µM (inconclusive), respectively. Also, the IC50 in experiment [2] was > 55.7 µM (not active); in experiment [3], > 67.6 µM (inactive); against Insulin-degrading enzyme it was 14 µM (not active); with HEK293, > 67.6 µM (inactive).

By EC50 is commonly meant the concentration needed to bring the measured effect to its halfway point. By IC50 is commonly meant the concentration that gives 50% inhibition.
